Test results as given in publication PMC8914261, “Discovery and Characterization of the Naturally Occurring Inhibitors Against Human Pancreatic Lipase in Ampelopsis grossedentata” (Frontiers in Nutrition, 2022).

Legend:
[1] = target: T1, human pancreatic lipase (hPL) (Homo sapiens, UniProt P16233); assay: hPL inhibition assay (hPL-catalyzed DDAO-ol hydrolysis, fluorescence); assay type: biochemical; details: for IC50: hPL, DDAO-ol 20 μM as substrate, 3 min pre-incubation at 37°C; for hPL inhibition at high dose: inhibitor at 100 μM; for remaining activity at 10 µM: inhibitor at 10 μM, read-out: residual activities of hPL; for hPL inhibition activity (qualitative): tested at 1, 10 and 100 μM
T1 construct: made in house
T1 sequence (P16233 17-465): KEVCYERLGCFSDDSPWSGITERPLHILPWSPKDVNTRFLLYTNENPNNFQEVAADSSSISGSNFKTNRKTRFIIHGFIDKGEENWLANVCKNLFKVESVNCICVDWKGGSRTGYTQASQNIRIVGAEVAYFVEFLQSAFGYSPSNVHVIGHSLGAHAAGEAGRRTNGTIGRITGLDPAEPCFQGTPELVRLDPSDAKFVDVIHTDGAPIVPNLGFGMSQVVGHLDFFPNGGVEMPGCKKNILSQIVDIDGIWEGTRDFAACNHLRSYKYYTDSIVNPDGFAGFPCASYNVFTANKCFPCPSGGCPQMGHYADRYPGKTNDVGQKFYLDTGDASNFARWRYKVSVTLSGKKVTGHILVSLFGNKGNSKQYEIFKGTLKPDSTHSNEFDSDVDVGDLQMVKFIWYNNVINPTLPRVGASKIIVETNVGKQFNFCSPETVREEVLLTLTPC

[2] = Estimated local exposure in the gastrointestinal tract (daily dose divided by volume of the human gastrointestinal system); details: oral AGE at daily dosage recommended by Chinese Materia Medica
Source text: A. grossedentata is known as the “king of flavonoids”, while the content of total flavonoids in AGE is up to 45% ([57]). Herein, a total of nine flavonoids in AGE were identified and characterized by LC–MS/MS-based chemical profiling.

[3] = oral administration; ref [60], [61]; cited from earlier work
[4] = target: T1, human pancreatic lipase (hPL); assay: Inhibition kinetic analyses against hPL-catalyzed DDAO-ol hydrolysis (Lineweaver-Burk); assay type: biochemical
[5] = target: T1, human pancreatic lipase (hPL); assay: Time-dependent inhibition assay of hPL (different pre-incubation times); assay type: biochemical; details: long pre-incubation time vs. standard
Protocol: After pre-incubating at 37°C for 3 min, the substrate of DDAO-ol (20 μM, final concentration) was added to the initial reaction. […] The standard curve was plotted using DDAO as product standard (Supplementary Figure S6). The control incubations without inhibitors were also performed.

O=c1c(O[C@@H]2OC[C@@H](O)[C@H](O)[C@H]2O)c(-c2ccc(O)c(O)c2)oc2cc(O)cc(O)c12 [Reynoutirn, Reynoutrin]
IC50 [1]: > 100 µM
hPL inhibition at high dose [1]: did not inhibit

Sanggenone C [SanggenoneC, reference compound]
IC50 [1]: 3.46 ± 0.07 µM

O=C1c2c(O)cc(O)cc2O[C@H](c2cc(O)c(O)c(O)c2)[C@H]1O [Dihydromyricetin]
IC50 [1]: 34.3 ± 4.63 µM
local exposure in the gastrointestinal tract [2]: 206.08 µM
local exposure in stomach and small intestine vs. other deep organs (heart, liver, spleen, lung, kidney, brain) [3]: much higher
oral bioavailability [3]: very poor

Myricitrin
hPL inhibition at high dose [1]: did not inhibit

O=c1c(O)c(-c2ccc(O)c(O)c2)oc2cc(O)cc(O)c12 [Quercetin]
remaining activity at 10 µM [1]: < 15%
Inhibition mode ([4]; Lineweaver-Burk plots): Non-competitive
time dependence of hPL inhibition [5]: not time-dependent

O=C1c2c(O)cc(O)cc2O[C@H](c2cc(O)c(O)c(O)c2)[C@@H]1O [Iso-dihydromyricetin]
IC50 [1]: 14.4 ± 1.21 µM
hPL inhibition activity (qualitative) [1]: moderate
local exposure in the gastrointestinal tract [2]: 106.90 µM

O=C1c2c(O)cc(O)cc2OC(c2ccc(O)c(O)c2)C1O (stereo not shown) [Taxifolin]
IC50 [1]: 27.8 ± 2.92 µM
hPL inhibition activity (qualitative) [1]: moderate
local exposure in the gastrointestinal tract [2]: 11.85 µM

O=c1c(O)c(-c2cc(O)c(O)c(O)c2)oc2cc(O)cc(O)c12 [Myricetin]
IC50 [1]: 1.34 ± 0.18 µM
remaining activity at 10 µM [1]: < 15%
Ki ([4]; apparent Ki): 2.04 ± 0.75 µM
time dependence of hPL inhibition [5]: not time-dependent
local exposure in the gastrointestinal tract [2]: 19.37 µM
